What all share (format): cell-based
One assay deals with T1, M4 muscarinic receptor (Homo sapiens, UniProt P08173).
T1 construct: expressed in transfected cells; host or cells: CHO (M4-CHO)
T1 sequence (P08173 1-479): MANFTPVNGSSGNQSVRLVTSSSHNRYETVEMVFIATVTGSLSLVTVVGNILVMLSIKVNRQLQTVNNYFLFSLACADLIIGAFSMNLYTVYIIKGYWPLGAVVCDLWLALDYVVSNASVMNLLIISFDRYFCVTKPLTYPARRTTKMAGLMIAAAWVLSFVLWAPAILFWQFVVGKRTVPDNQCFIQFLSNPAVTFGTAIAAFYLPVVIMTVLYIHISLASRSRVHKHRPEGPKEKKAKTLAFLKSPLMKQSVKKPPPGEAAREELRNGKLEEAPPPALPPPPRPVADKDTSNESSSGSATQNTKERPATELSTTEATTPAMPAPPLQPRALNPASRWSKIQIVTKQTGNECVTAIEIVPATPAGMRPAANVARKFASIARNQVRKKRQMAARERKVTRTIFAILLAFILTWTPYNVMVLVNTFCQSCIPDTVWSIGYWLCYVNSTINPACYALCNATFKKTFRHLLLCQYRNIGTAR
In words: Functional mobilization of intracellular calcium (FLIPR) in CHO cells expressing M4. As to conditions: for M4 Activity: CHO cells expressing M4, FLIPR calcium assay; for Emax: CHO, 100% efficacy = maximum response obtained with the Carbachol control. Summed up: (§1)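 Calcium flux is read on FLIPR over 60 sec at 488/540 nm in muscarinic-receptor CHO lines. Antagonist mode adds carbachol at EC80 after 15 min compound preincubation or with simultaneous co-application. Agonist mode adds compound alone. Cells carry Fluo-3 or Calcium 3 dye in probenecid-containing pH 7.4 buffer, 0.5% DMSO final.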

The target in a further assay is T2, M3 muscarinic receptor (Homo sapiens, UniProt P20309).
T2 construct: expressed in transfected cells; host or cells: CHO (M3-CHO)
In words: Functional mobilization of intracellular calcium (FLIPR) in CHO cells expressing M3. The following applies: for M3 Activity: CHO cells expressing M3, FLIPR calcium assay; for Emax: CHO, 100% efficacy = maximum response obtained with the Carbachol control. An outline of the steps: as §1

The next assay concerns the target T3, M2 muscarinic receptor (Homo sapiens, UniProt P08172).
T3 construct: expressed in transfected cells; host or cells: CHO (M2-CHO)
T3 sequence (P08172 1-466): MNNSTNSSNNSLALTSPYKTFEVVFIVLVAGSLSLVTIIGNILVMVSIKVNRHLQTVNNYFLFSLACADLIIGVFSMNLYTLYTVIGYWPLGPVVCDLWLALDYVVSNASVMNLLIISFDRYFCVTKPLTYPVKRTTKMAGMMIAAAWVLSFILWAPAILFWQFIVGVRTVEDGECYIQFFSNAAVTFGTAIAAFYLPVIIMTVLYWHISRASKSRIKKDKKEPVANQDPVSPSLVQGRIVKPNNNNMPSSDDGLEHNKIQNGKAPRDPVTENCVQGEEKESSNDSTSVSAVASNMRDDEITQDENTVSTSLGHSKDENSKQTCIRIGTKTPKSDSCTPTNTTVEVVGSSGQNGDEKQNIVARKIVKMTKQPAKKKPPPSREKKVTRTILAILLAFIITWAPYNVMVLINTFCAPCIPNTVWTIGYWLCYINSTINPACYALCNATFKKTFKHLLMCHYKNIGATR
In words: Functional mobilization of intracellular calcium (FLIPR) in CHO cells expressing M2. The following applies: for M2 Activity: CHO cells expressing M2, FLIPR calcium assay; for Emax: CHO, 100% efficacy = maximum response obtained with the Carbachol control. Summed up:
as §1
For orientation: A change in cytosolic calcium serves as a functional read-out for many receptors and channels.

A further assay has as its target T4, M1 muscarinic receptor (Homo sapiens, UniProt P11229).
T4 construct: expressed in transfected cells; host or cells: CHO (M1-CHO)
T4 sequence (P11229 1-460): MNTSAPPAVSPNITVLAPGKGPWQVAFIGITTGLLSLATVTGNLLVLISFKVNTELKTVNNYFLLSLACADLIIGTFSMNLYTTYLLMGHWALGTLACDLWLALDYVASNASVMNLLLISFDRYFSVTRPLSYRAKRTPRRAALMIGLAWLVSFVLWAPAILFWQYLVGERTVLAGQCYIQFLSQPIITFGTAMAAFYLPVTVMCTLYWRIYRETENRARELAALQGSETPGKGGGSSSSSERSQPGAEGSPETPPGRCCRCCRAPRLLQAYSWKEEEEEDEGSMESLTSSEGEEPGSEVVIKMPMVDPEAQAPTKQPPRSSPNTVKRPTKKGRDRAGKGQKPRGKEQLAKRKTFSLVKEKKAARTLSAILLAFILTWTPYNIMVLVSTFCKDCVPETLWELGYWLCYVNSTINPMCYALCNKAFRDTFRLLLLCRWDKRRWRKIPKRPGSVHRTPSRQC
In words: Functional mobilization of intracellular calcium (FLIPR) in CHO cells expressing M1. The following applies: for M1 Activity: CHO cells expressing M1, FLIPR calcium assay; for Emax: CHO, 100% efficacy = maximum response obtained with the Carbachol control. Summed up:
as §1

T2 sequence (P20309 whole entry): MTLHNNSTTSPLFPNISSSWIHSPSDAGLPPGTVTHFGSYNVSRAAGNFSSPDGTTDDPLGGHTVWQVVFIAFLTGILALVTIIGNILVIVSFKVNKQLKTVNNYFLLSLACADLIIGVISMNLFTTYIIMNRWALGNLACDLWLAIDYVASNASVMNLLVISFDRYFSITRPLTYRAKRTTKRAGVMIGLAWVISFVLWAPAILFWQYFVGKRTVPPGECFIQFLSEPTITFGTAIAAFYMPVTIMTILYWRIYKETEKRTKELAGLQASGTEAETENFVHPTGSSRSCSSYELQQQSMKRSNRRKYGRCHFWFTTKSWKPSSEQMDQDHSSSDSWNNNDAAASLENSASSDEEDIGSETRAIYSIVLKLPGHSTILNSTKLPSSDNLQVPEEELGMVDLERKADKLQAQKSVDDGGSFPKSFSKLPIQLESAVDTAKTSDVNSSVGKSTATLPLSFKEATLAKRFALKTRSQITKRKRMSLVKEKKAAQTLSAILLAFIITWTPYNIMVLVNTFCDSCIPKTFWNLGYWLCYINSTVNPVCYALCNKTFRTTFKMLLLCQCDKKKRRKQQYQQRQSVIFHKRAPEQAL

`CC(C)(C)OC(=O)N1CCC2(CC1)C[C@H](NC(=O)c1ccccc1)c1ccccc12` [compound 255]: on M4 muscarinic receptor, the “M4 Activity” value is reported as “+ (activity was measured to be greater than 5.0 μM)” and the Emax (in general, the greatest response seen or fitted, relative to the assay's reference) is less than 25%. On M3 muscarinic receptor, the “M3 Activity” value is “+ (activity was measured to be greater than 5.0 μM)” and the maximal response (Emax) was less than 25%. Further, on M2 muscarinic receptor, the “M2 Activity” value is reported as “+ (activity was measured to be greater than 5.0 μM)” and the Emax was less than 25%. Moreover, on M1 muscarinic receptor, the “M1 Activity” value is “+ (activity was measured to be greater than 5.0 μM)” and the maximal effect (Emax) was less than 25%.

Consider `CC(=O)N[C@H]1CC2(CCN(CC(=O)O)CC2)c2ccccc21` [compound 256], for which, at M4 muscarinic receptor, the “M4 Activity” value was “+ (activity was measured to be greater than 5.0 μM)” and the Emax is less than 25%. At M3 muscarinic receptor, the “M3 Activity” value is given as “+ (activity was measured to be greater than 5.0 μM)” and the Emax was less than 25%. Further, on M2 muscarinic receptor, the “M2 Activity” value is on record as “+ (activity was measured to be greater than 5.0 μM)” and the Emax was less than 25%. Besides, on M1 muscarinic receptor, the “M1 Activity” value was “+ (activity was measured to be greater than 5.0 μM)” and the maximal effect (Emax) was less than 25%.

For the molecule `COC(=O)CCCCCN1CCC2(CC1)C[C@H](NC(C)=O)c1ccccc12` [compound 257], on M4 muscarinic receptor, the “M4 Activity” value is “+++ (activity was measured to be less than 2.0 μM)” and the maximal effect (Emax) lay within 25 to 100%. On M3 muscarinic receptor, the “M3 Activity” value was “+ (activity was measured to be greater than 5.0 μM)” and the maximal response (Emax) is 25 to 100%. In addition, on M2 muscarinic receptor, the “M2 Activity” value is on record as “+++ (activity was measured to be less than 2.0 μM)” and the Emax lay within 25 to 100%. Also, on M1 muscarinic receptor, the “M1 Activity” value is on record as “+++ (activity was measured to be less than 2.0 μM)” and the Emax is more than 100%.

Turning to `CC(=O)N[C@H]1CC2(CCN(CC(=O)N(CC#N)C(C)C)CC2)c2ccccc21` [compound 258], at M4 muscarinic receptor, the “M4 Activity” value is “+ (activity was measured to be greater than 5.0 μM)” and the Emax is less than 25%. Besides, on M3 muscarinic receptor, the “M3 Activity” value was “+ (activity was measured to be greater than 5.0 μM)” and the Emax was less than 25%. Further, on M2 muscarinic receptor, the “M2 Activity” value is recorded as “+ (activity was measured to be greater than 5.0 μM)” and the Emax is less than 25%. On M1 muscarinic receptor, the “M1 Activity” value was “+ (activity was measured to be greater than 5.0 μM)” and the Emax is less than 25%.

As for `CC(C)CCN1CCC2(CC1)CC(C(=O)O)c1ccccc12` (stereo not shown) [compound 259], at M4 muscarinic receptor, the “M4 Activity” value is “+ (activity was measured to be greater than 5.0 μM)” and the Emax was less than 25%. In addition, at M3 muscarinic receptor, the “M3 Activity” value is on record as “+ (activity was measured to be greater than 5.0 μM)” and the maximal effect (Emax) was less than 25%. Moreover, at M2 muscarinic receptor, the “M2 Activity” value is recorded as “+ (activity was measured to be greater than 5.0 μM)” and the Emax is less than 25%. Besides, on M1 muscarinic receptor, the “M1 Activity” value is on record as “+ (activity was measured to be greater than 5.0 μM)” and the maximal effect (Emax) is 25 to 100%.

As to `CC(=O)NC1CCC2(CCN(C(=O)OC(C)(C)C)CC2)c2ccccc21` (stereo not shown) [compound 260], the Emax on M4 muscarinic receptor, at M3 muscarinic receptor, at M2 muscarinic receptor and on M1 muscarinic receptor was less than 25% each time.

For the molecule `CC(=O)N[C@H]1CC2(CCN(C(=O)OC(C)(C)C)CC2)c2ccc(C)cc21` [compound 261], on M4 muscarinic receptor, the “M4 Activity” value is “+ (activity was measured to be greater than 5.0 μM)” and the maximal effect (Emax) is less than 25%. For the same molecule, on M3 muscarinic receptor, the “M3 Activity” value was “+ (activity was measured to be greater than 5.0 μM)” and the maximal effect (Emax) was less than 25%. At M2 muscarinic receptor, the “M2 Activity” value is “+ (activity was measured to be greater than 5.0 μM)” and the maximal effect (Emax) was less than 25%. For the same molecule, on M1 muscarinic receptor, the “M1 Activity” value was “+ (activity was measured to be greater than 5.0 μM)” and the maximum response (Emax) was less than 25%.

The values above are taken from patent US8003660B2, “Modulators of muscarinic receptors” (Vertex Pharmaceuticals Incorporated, priority 2006, dated 2011).
